One may read the IC50 as the concentration that inhibits the measured activity by half.

Where two headings read alike, the source gives them in different places. Where only a bound is given, the exact number is not on record here.

For assay [1], the target named is T1, human AXL (473-end) (Homo sapiens, UniProt P30530).
T1 construct: human AXL (473-end); purchased SignalChem, Canada
T1 sequence (P30530 473-894 limits assumed): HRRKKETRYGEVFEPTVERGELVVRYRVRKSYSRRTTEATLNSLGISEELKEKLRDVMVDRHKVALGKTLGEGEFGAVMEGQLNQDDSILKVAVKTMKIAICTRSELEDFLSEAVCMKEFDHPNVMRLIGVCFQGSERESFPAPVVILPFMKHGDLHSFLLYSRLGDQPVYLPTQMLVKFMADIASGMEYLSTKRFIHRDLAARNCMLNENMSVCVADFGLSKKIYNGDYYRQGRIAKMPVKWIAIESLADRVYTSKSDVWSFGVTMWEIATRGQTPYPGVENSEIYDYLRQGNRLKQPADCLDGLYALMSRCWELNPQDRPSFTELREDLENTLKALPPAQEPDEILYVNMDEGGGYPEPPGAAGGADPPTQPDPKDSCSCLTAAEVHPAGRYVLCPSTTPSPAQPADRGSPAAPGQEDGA
The assay can be described thus: HTRF kinase activity biochemical assay, AXL. The conditions noted are these: 10 μM ATP, 30 minutes pre-incubation. (In general: In TR-FRET formats the signal depends on donor and acceptor labels being close together.)

The target in assay [2] is T2, human MER (528-end) (Homo sapiens, UniProt Q12866).
T2 construct: human MER (528-end); purchased Camnabio, Japan
T2 sequence (Q12866 528-999 limits assumed): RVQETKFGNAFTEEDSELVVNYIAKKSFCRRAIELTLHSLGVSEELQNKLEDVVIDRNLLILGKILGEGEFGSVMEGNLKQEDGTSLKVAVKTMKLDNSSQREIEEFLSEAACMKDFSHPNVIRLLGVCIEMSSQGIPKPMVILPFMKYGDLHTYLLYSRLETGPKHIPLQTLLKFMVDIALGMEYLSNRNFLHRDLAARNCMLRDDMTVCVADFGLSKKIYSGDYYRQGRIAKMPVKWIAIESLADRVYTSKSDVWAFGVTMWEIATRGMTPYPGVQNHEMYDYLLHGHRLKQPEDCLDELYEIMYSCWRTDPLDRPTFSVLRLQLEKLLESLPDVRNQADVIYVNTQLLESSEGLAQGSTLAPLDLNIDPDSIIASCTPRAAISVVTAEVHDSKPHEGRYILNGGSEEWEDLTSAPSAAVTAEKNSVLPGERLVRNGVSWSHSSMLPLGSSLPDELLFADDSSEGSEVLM
The assay can be described thus: HTRF kinase activity biochemical assay, MER. The conditions noted are these: 10 μM ATP, 30 minutes pre-incubation; read-out: HTRF MERTK IC50.

Assay [3] deals with T3, human TYRO3 (455-end) (Homo sapiens, UniProt Q06418).
T3 construct: TYRO3 (455-end); purchased SignalChem, Canada
T3 sequence (Q06418 455-890 limits assumed): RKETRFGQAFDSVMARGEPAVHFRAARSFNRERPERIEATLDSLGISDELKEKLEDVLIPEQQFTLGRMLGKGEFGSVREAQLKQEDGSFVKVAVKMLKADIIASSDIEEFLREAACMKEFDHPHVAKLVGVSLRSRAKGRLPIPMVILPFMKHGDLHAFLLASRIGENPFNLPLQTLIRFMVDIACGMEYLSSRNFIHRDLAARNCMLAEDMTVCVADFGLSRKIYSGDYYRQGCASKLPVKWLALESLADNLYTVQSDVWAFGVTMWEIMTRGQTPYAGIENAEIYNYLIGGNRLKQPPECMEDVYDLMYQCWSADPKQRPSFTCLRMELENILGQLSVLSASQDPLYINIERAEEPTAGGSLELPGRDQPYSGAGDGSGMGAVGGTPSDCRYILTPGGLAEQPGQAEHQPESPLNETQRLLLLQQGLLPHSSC
The assay can be described thus: HTRF kinase activity biochemical assay, TYRO3.

[4] abbreviates: 10 μM ATP, 30 minutes pre-incubation, read-out: HTRF TYRO IC50.

In the case of `Cn1cc(-c2cnc(N)c(C(=O)N[C@H]3CCC[C@@H]3OCc3ccc(-c4ccc5c(c4)C4(CC4)CN(C4CCN(CCO)CC4)C5)cc3)c2)cn1` [Example 72, 2-amino-N-{(1S,2S)-2-[(4-{2′-[1-(2-hydroxyethyl)piperidin-4-yl]-2′,3′-dihydro-1′H-spiro[cyclopropane-1,4′-isoquinolin]-6′-yl}phenyl)methoxy]cyclopentyl}-5-(1-methyl-1H-pyrazol-4-yl)pyridine-3-carboxamide], the values for the IC50 in assay [1], in assay [2] and in assay [3] (setting [4]) were greater than 1000 nM, 100 to 1000 nM and greater than 1000 nM, respectively.

In the case of `Cn1cc(-c2cnc(N)c(C(=O)N[C@H]3CCC[C@@H]3OCc3ccc(-c4ccc5c(n4)C(C)(C)C(=O)N5C4CCN(CCO)CC4)cc3)c2)cn1` [Example 73, 2-amino-N-{(1S,2S)-2-[(4-{1-[1-(2-hydroxyethyl)piperidin-4-yl]-3,3-dimethyl-2-oxo-2,3-dihydro-1H-pyrrolo[3,2-b]pyridin-5-yl}phenyl)methoxy]cyclopentyl}-5-(1-methyl-1H-pyrazol-4-yl)pyridine-3-carboxamide], the IC50 in assay [1] was greater than 1000 nM; in assay [2], 100 to 1000 nM; in assay [3], 100 to 1000 nM.

For the compound `CC1(C)C(=O)N(C2CCN(CCO)CC2)c2ccc(-c3ccc(CO[C@H]4CCC[C@@H]4NC(=O)c4cc(-c5ccc(F)nc5)cnc4N)cc3)nc21` [Example 74, 6-amino-6′-fluoro-N-{(1S,2S)-2-[(4-{1-[1-(2-hydroxyethyl)piperidin-4-yl]-3,3-dimethyl-2-oxo-2,3-dihydro-1H-pyrrolo[3,2-b]pyridin-5-yl}phenyl)methoxy]cyclopentyl}[3,3′-bipyridine]-5-carboxamide], the IC50 in assay [1] was greater than 1000 nM; in assay [2] it was 100 to 1000 nM; in assay [3], 100 to 1000 nM.

For the compound `Nc1ncc(-c2ccc(F)nc2)cc1C(=O)N[C@H]1CCC[C@@H]1OCc1ccc(-c2ccc3c(c2)C2(CC2)CN(C2CCN(CCO)CC2)C3)cc1` [Example 75, 6-amino-6′-fluoro-N-{(1S,2S)-2-[(4-{2′-[1-(2-hydroxyethyl)piperidin-4-yl]-2′,3′-dihydro-1′H-spiro[cyclopropane-1,4′-isoquinolin]-6′-yl}phenyl)methoxy]cyclopentyl}[3,3′-bipyridine]-5-carboxamide], the IC50 in assay [1], in assay [2] and in assay [3] (setting [4]) was greater than 1000 nM in each case.

As for `Cn1cc(-c2cnc(N)c(C(=O)N[C@H]3CCC[C@@H]3OCc3ccc(-c4cnc5c(c4)C(C)(C)C(=O)N5C4CCN(CCO)CC4)cc3)c2)cn1` [Example 76, 2-amino-N-{(1S,2S)-2-[(4-{1-[1-(2-hydroxyethyl)piperidin-4-yl]-3,3-dimethyl-2-oxo-2,3-dihydro-1H-pyrrolo[2,3-b]pyridin-5-yl}phenyl)methoxy]cyclopentyl}-5-(1-methyl-1H-pyrazol-4-yl)pyridine-3-carboxamide], the figures for the IC50 in assay [1], in assay [2] and in assay [3] were 100 to 1000 nM, 10 to 100 nM and 100 to 1000 nM, respectively.

Regarding `Cn1cc(-c2cnc(N)c(C(=O)N[C@H]3CCC[C@@H]3OCc3ccc(-c4cnc5c(c4)C(C)(C)CN5C4CCN(CCO)CC4)cc3)c2)cn1` [Example 77, 2-amino-N-{(1S,2S)-2-[(4-{1-[1-(2-hydroxyethyl)piperidin-4-yl]-3,3-dimethyl-2,3-dihydro-1H-pyrrolo[2,3-b]pyridin-5-yl}phenyl)methoxy]cyclopentyl}-5-(1-methyl-1H-pyrazol-4-yl)pyridine-3-carboxamide], the IC50 in assay [1] was less than 10 nM; in assay [2], less than 10 nM; in assay [3] (setting [4]), 10 to 100 nM.

Take `CC1(C)OCC(CN2CCN(C3CCc4cc(-c5ccc(CO[C@H]6CCC[C@@H]6NC(=O)c6cc(-c7ccc(F)nc7)cnc6N)cc5)ccc43)CC2)O1` (stereo partly drawn) [Example 78, 6-amino-N-[(1S,2S)-2-{[4-(1-{4-[(2,2-dimethyl-1,3-dioxolan-4-yl)methyl]piperazin-1-yl}-2,3-dihydro-1H-inden-5-yl)phenyl]methoxy}cyclopentyl]-6′-fluoro[3,3′-bipyridine]-5-carboxamide]: the IC50 is 10 to 100 nM in assay [1], less than 10 nM in assay [2] and greater than 1000 nM in assay [3] (setting [4]).

Turning to `Cn1cc(-c2cnc(N)c(C(=O)N[C@H]3CCC[C@@H]3OCc3ccc(-c4ccc5c(c4)CCC5N4CCN(CC5COC(C)(C)O5)CC4)cc3)c2)cn1` (stereo partly drawn) [Example 79, 2-amino-N-[(1S,2S)-2-{[4-(1-{4-[(2,2-dimethyl-1,3-dioxolan-4-yl)methyl]piperazin-1-yl}-2,3-dihydro-1H-inden-5-yl)phenyl]methoxy}cyclopentyl]-5-(1-methyl-1H-pyrazol-4-yl)pyridine-3-carboxamide], the IC50 in assay [1] was less than 10 nM; in assay [2], less than 10 nM; in assay [3] (setting [4]) it was greater than 1000 nM.

On to `Cn1cc(-c2cnc(N)c(C(=O)N[C@H]3CCC[C@@H]3OCc3ccc(-c4ccc5c(c4)CCC5N4CCN(CC(O)CO)CC4)cc3)c2)cn1` (stereo partly drawn) [Example 81, 2-amino-N-{(1S,2S)-2-[(4-{1-[4-(2,3-dihydroxypropyl)piperazin-1-yl]-2,3-dihydro-1H-inden-5-yl}phenyl)methoxy]cyclopentyl}-5-(1-methyl-1H-pyrazol-4-yl)pyridine-3-carboxamide], for which the results for the IC50 in assay [1], in assay [2] and in assay [3] (setting [4]) were less than 10 nM, less than 10 nM and 10 to 100 nM, respectively.

For the compound `CC1(C)CC(N2CCN(CCO)CC2)c2ccc(-c3ccc(CO[C@H]4CCC[C@@H]4NC(=O)c4cc(-c5ccc(F)nc5)cnc4N)cc3)cc21` (stereo partly drawn) [Example 84, 6-amino-6′-fluoro-N-{(1S,2S)-2-[(4-{1-[4-(2-hydroxyethyl)piperazin-1-yl]-3,3-dimethyl-2,3-dihydro-1H-inden-5-yl}phenyl)methoxy]cyclopentyl}[3,3′-bipyridine]-5-carboxamide], the values for the IC50 in assay [1], in assay [2] and in assay [3] (setting [4]) were less than 10 nM, less than 10 nM and 10 to 100 nM, respectively.

Consider `Nc1ncc(-c2ccc(F)nc2)cc1C(=O)N[C@H]1CCC[C@@H]1OCc1ccc(-c2ccc3c(c2)CC(F)(F)C3N2CCN(CCO)CC2)cc1` (stereo partly drawn) [Example 86, 6-amino-N-{(1S,2S)-2-[(4-{2,2-difluoro-1-[4-(2-hydroxyethyl)piperazin-1-yl]-2,3-dihydro-1H-inden-5-yl}phenyl)methoxy]cyclopentyl}-6′-fluoro[3,3′-bipyridine]-5-carboxamide], for which the IC50 in assay [1] was less than 10 nM; in assay [2], less than 10 nM; in assay [3] (setting [4]), 100 to 1000 nM.

As for `Cn1ccc(-c2cc(C(=O)N[C@H]3CCC[C@@H]3OCc3ccc(-c4ccc5c(c4)CC(F)(F)C5N4CCN(CCO)CC4)cc3)cnc2N)cc1=O` (stereo partly drawn) [Example 87, amino-N-{(1S,2S)-2-[(4-{2,2-difluoro-1-[4-(2-hydroxyethyl)piperazin-1-yl]-2,3-dihydro-1H-inden-5-yl}phenyl)methoxy]cyclopentyl}-1′-methyl-2′-oxo-1′,2′-dihydro[3,4′-bipyridine]-5-carboxamide], the IC50 is less than 10 nM in assay [1], less than 10 nM in assay [2] and 100 to 1000 nM in assay [3] (setting [4]).

For `Cn1ccc(-c2cnc(N)c(C(=O)N[C@H]3CCC[C@@H]3OCc3ccc(-c4ccc5c(c4)CC[C@@H]5N4CCN(CCO)CC4)cc3)c2)cc1=O` [Example 92, 6-amino-N-{(1S,2S)-2-[(4-{(1S)-1-[4-(2-hydroxyethyl)piperazin-1-yl]-2,3-dihydro-1H-inden-5-yl}phenyl)methoxy]cyclopentyl}-1′-methyl-2′-oxo-1′,2′-dihydro[3,4′-bipyridine]-5-carboxamide], the IC50 in assay [1] was less than 10 nM; in assay [2] it was less than 10 nM; in assay [3] (setting [4]) it was 10 to 100 nM.

In the case of `CN1CCN(C2CC(C)(C)c3cc(-c4ccc(CO[C@H]5CCC[C@@H]5NC(=O)c5cc(-c6ccc(F)nc6)cnc5N)cc4)ccc32)CC1` (stereo partly drawn) [Example 94, 6-amino-N-[(1S,2S)-2-({4-[3,3-dimethyl-1-(4-methylpiperazin-1-yl)-2,3-dihydro-1H-inden-5-yl]phenyl}methoxy)cyclopentyl]-6′-fluoro[3,3′-bipyridine]-5-carboxamide], the results for the IC50 in assay [1], in assay [2] and in assay [3] (setting [4]) were less than 10 nM, less than 10 nM and 10 to 100 nM, respectively.

Source of the values: patent US20260146035A1, “FUSED BICYCLIC COMPOUNDS AND THEIR USE AS MER AND AXL INHIBITORS” (DONG-A ST CO., LTD., priority 2022, published 2026).
